What was measured:
Endoplasmin = Endoplasmin (Homo sapiens, UniProt P14625); experiment: Fluorescence Polarization (FP) Assay; conditions: pH 7.3
Protocol: (§1) Assay buffer (25 μL, 20 mM HEPES at pH 7.3, 50 mM KCl, 5 mM MgCl2, 1 mM DTT, 20 mM Na2MoO4, 0.01% NP-40, and 0.5 mg mL−1 BGG) was added to a 96-well plate (black well, black bottom) followed by the desired compound at the indicated final concentrations in DMSO (1% DMSO final concentration). Subsequently, 10 nM recombinant cGrp94/Hsp90α and 6 nM FITC-GDA were added in 50 and 25 μL assay buffer respectively, resulting in a 100 μL final volume. Plates were incubatedfor 5 h at 4 °C on a rocker. […] Percent FITC-GDA bound was determined by assigning the DMSO millipolarization unit (mP) value as the 100% bound value and 0% for FITC-GDA in assay buffer without any protein.

[1] = target: Heat shock protein HSP 90-alpha (Homo sapiens, UniProt P07900); experiment: Fluorescence Polarization (FP) Assay; conditions: pH 7.3
Protocol: as §1

Chain of Endoplasmin (P14625 whole entry): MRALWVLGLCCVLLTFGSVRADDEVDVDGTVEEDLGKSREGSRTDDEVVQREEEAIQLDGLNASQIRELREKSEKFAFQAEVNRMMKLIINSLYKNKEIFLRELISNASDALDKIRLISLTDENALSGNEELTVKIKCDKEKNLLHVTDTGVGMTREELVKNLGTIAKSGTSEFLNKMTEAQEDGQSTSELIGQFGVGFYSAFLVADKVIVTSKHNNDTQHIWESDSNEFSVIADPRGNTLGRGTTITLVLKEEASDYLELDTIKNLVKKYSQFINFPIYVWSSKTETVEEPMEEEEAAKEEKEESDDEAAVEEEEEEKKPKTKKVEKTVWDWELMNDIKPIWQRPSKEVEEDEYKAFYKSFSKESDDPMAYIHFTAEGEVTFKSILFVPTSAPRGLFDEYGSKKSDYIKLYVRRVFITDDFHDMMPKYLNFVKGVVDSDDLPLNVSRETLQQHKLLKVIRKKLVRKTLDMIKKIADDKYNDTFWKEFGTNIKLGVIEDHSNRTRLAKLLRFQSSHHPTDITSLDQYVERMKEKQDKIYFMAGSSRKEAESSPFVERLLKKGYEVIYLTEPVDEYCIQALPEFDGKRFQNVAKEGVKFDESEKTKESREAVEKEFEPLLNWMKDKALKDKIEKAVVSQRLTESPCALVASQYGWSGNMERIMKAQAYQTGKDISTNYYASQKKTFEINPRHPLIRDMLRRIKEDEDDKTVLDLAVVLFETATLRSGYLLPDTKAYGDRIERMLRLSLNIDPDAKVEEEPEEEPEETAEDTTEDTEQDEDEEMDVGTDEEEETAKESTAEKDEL

| Kd (Endoplasmin) [µM] | Kd [1] [µM] | Compound |
| --- | --- | --- |
| 0.72 | > 100 | NC(=O)c1ccc(-n2cccc2Cc2ccccc2F)cc1NC1CCC(O)CC1 (stereo not given) [4-(2-(2-fluorobenzyl)-1H-pyrrol-1-yl)-2-(((1r,4r)-4-hydroxycyclohexyl)amino)benzamide (8e)] |
| 8.35 | > 100 | Cc1ccc(-c2cccn2-c2ccc(C(N)=O)c(NC3CCC(O)CC3)c2)cc1 (stereo not given) [2-(((1r,4r)-4-hydroxycyclohexyl)amino)-4-(2-(p-tolyl)-1H-pyrrol-1-yl)benzamide (5d)] |
|  | > 100 | NC(=O)c1ccc(-n2cccc2Cc2ccc(O)cc2)cc1NC1CCC(O)CC1 (stereo not given) [4-(2-(4-hydroxybenzyl)-1H-pyrrol-1-yl)-2-(((1r,4r)-4-hydroxycyclohexyl)amino)benzamide (8l)] |
| 5.5 | > 100 | NC(=O)c1ccc(-n2cccc2-c2cccnc2)cc1NC1CCC(O)CC1 (stereo not given) [2-(((1r,4r)-4-hydroxycyclohexyl)amino)-4-(2-(pyridin-3-yl)-1H-pyrrol-1-yl)benzamide (5i)] |
| 9.43 | > 100 | Cc1cccc(-c2cccn2-c2ccc(C(N)=O)c(NC3CCC(O)CC3)c2)c1 (stereo not given) [2-(((1r,4r)-4-hydroxycyclohexyl)amino)-4-(2-(m-tolyl)-1H-pyrrol-1-yl)benzamide (5c)] |
| 14 | > 100 | NC(=O)c1ccc(-n2cccc2Cc2ccccn2)cc1NC1CCC(O)CC1 (stereo not given) [2-(((1r,4r)-4-hydroxycyclohexyl)amino)-4-(2-(pyridin-2-ylmethyl)-1H-pyrrol-1-yl)benzamide (8o)] |
|  | > 100 | NC(=O)c1ccc(-n2cccc2-c2cccc(Cl)c2)cc1NC1CCC(O)CC1 (stereo not given) [4-(2-(3-chlorophenyl)-1H-pyrrol-1-yl)-2-(((1r,4r)-4-hydroxycyclohexyl)amino)benzamide (5f)] |
| 1.13 | > 100 | NC(=O)c1ccc(-n2cccc2Cc2ccccc2)cc1NC1CCC(O)CC1 (stereo not given) [4-(2-benzyl-1H-pyrrol-1-yl)-2-(((1r,4r)-4-hydroxycyclohexyl)amino)benzamide (8a)] |
| 5.5 | > 100 | NC(=O)c1ccc(-n2cccc2Cc2cccnc2)cc1NC1CCC(O)CC1 (stereo not given) [2-(((1r,4r)-4-hydroxycyclohexyl)amino)-4-(2-(pyridin-3-ylmethyl)-1H-pyrrol-1-yl)benzamide (8p)] |
| 12.9 | > 100 | NC(=O)c1ccc(-n2cccc2Cc2ccccc2Br)cc1NC1CCC(O)CC1 (stereo not given) [4-(2-(2-bromobenzyl)-1H-pyrrol-1-yl)-2-(((1r,4r)-4-hydroxycyclohexyl)amino)benzamide (8h)] |
| 9.05 | > 100 | NC(=O)c1ccc(-n2cccc2-c2ccccc2)cc1NC1CCC(O)CC1 (stereo not given) [2-(((1r,4r)-4-hydroxycyclohexyl)amino)-4-(2-phenyl-1H-pyrrol-1-yl)benzamide (5a)] |
| 9.9 | > 100 | Cc1ccccc1-c1cccn1-c1ccc(C(N)=O)c(NC2CCC(O)CC2)c1 (stereo not given) [2-(((1r,4r)-4-hydroxycyclohexyl)amino)-4-(2-(o-tolyl)-1H-pyrrol-1-yl)benzamide (5b)] |
| 8.35 | > 100 | NC(=O)c1ccc(-n2cccc2Cc2ccc(F)cc2)cc1NC1CCC(O)CC1 (stereo not given) [4-(2-(4-fluorobenzyl)-1H-pyrrol-1-yl)-2-(((1r,4r)-4-hydroxycyclohexyl)amino)benzamide (8g)] |
| 13.2 | > 100 | NC(=O)c1ccc(-n2cccc2Cc2ccncc2)cc1NC1CCC(O)CC1 (stereo not given) [2-(((1r,4r)-4-hydroxycyclohexyl)amino)-4-(2-(pyridin-4-ylmethyl)-1H-pyrrol-1-yl)benzamide (8q)] |
|  | > 100 | NC(=O)c1ccc(-n2cccc2-c2ccccc2Cl)cc1NC1CCC(O)CC1 (stereo not given) [4-(2-(2-chlorophenyl)-1H-pyrrol-1-yl)-2-(((1r,4r)-4-hydroxycyclohexyl)amino)benzamide (5e)] |
| 13.2 | > 100 | NC(=O)c1ccc(-n2cccc2-c2ccncc2)cc1NC1CCC(O)CC1 (stereo not given) [2-(((1r,4r)-4-hydroxycyclohexyl)amino)-4-(2-(pyridin-4-yl)-1H-pyrrol-1-yl)benzamide (5j)] |
| 2.45 | > 100 | NC(=O)c1ccc(-n2cccc2Cc2cccc(Cl)c2)cc1NC1CCC(O)CC1 (stereo not given) [4-(2-(3-chlorobenzyl)-1H-pyrrol-1-yl)-2-(((1r,4r)-4-hydroxycyclohexyl)amino)benzamide (8c)] |
| 10.6 | > 100 | NC(=O)c1ccc(-n2cccc2-c2ccc(Cl)cc2)cc1NC1CCC(O)CC1 (stereo not given) [4-(2-(4-chlorophenyl)-1H-pyrrol-1-yl)-2-(((1r,4r)-4-hydroxycyclohexyl)amino)benzamide (5g)] |
| 4.53 | > 100 | NC(=O)c1ccc(-n2cccc2Cc2cccc(F)c2)cc1NC1CCC(O)CC1 (stereo not given) [4-(2-(3-fluorobenzyl)-1H-pyrrol-1-yl)-2-(((1r,4r)-4-hydroxycyclohexyl)amino)benzamide (8f)] |
| 4.2 | > 100 | Cc1ccccc1Cc1cccn1-c1ccc(C(N)=O)c(NC2CCC(O)CC2)c1 (stereo not given) [2-(((1r,4r)-4-hydroxycyclohexyl)amino)-4-(2-(2-methylbenzyl)-1H-pyrrol-1-yl)benzamide (8i)] |
| > 25 |  | NC(=O)c1ccc(-n2cccc2Cc2c(F)cccc2F)cc1N[C@H]1CC[C@H](O)CC1 [4-(2-(2,6-difluorobenzyl)-1H-pyrrol-1-yl)-2-(((1r,4r)-4hydroxycyclohexyl)amino)benzamide (8n)] |
| 0.83 | > 100 | NC(=O)c1ccc(-n2cccc2Cc2ccccc2Cl)cc1NC1CCC(O)CC1 (stereo not given) [4-(2-(2-chlorobenzyl)-1H-pyrrol-1-yl)-2-(((1r,4r)-4-hydroxycyclohexyl)amino)benzamide (8b)] |
| 1.15 | > 100 | COc1ccccc1Cc1cccn1-c1ccc(C(N)=O)c(NC2CCC(O)CC2)c1 (stereo not given) [2-(((1r,4r)-4-hydroxycyclohexyl)amino)-4-(2-(2-methoxybenzyl)-1H-pyrrol-1-yl)benzamide (8m)] |
| 14 | > 100 | NC(=O)c1ccc(-n2cccc2-c2ccccn2)cc1NC1CCC(O)CC1 (stereo not given) [2-(((1r,4r)-4-hydroxycyclohexyl)amino)-4-(2-(pyridin-2-yl)-1H-pyrrol-1-yl)benzamide (5h)] |

| Compound | Kd (Endoplasmin) [µM] | Kd [1] [µM] |
| --- | --- | --- |
| NC(=O)c1ccc(-n2cccc2CCc2ccccc2)cc1NC1CCC(O)CC1 (stereo not given) [2-(((1r,4r)-4-hydroxycyclohexyl)amino)-4-(2-phenethyl-1H-pyrrol-1-yl)benzamide (9)] | > 25 | > 100 |
| NC(=O)c1ccc(-n2cccc2Cc2cccc(O)c2)cc1NC1CCC(O)CC1 (stereo not given) [4-(2-(3-hydroxybenzyl)-1H-pyrrol-1-yl)-2-(((1r,4r)-4-hydroxycyclohexyl)amino)benzamide (8k)] | > 25 | > 100 |
| NC(=O)c1ccc(-n2cccc2Cc2ccc(Cl)cc2)cc1NC1CCC(O)CC1 (stereo not given) [4-(2-(4-chlorobenzyl)-1H-pyrrol-1-yl)-2-(((1r,4r)-4-hydroxycyclohexyl)amino)benzamide (8d)] | > 25 | > 100 |
